Source: patent US20100260684A1, “USE OF 3-ALKANOYLOXYMETHOXYCARBONYL NITROXIDE ESTERS AS OXIMETRY PROBES FOR MEASUREMENT OF OXYGEN STATUS IN TISSUES” (priority 2007, published 2010)
Like-named read-outs stand apart in the source and are kept apart here. Each block holds one molecule with its values, some of them ahead of it.

Legend:
[1] = literature values used for logP vs. logk' calibration line; cited from earlier work
[2] = In vivo EPR: nitroxide entrapped in brain after iv injection and saline wash of head vasculature; conditions: mice, vasculature washed with normal saline
[3] = Determination of logP of labile esters from HPLC capacity factors; conditions: pH 6
Jurkat lymphocytes = assay type: cell-based
Experimental: Cellular Loading of Nitroxides. Jurkat lymphocytes were cultured and loaded with nitroxides as previously described (5,6). […] After incubation, cells were washed 3 times in Hanks' Balanced Salt Solution (HBSS), and resuspended in […] HBSS. To lyse cells, […] digitonin was added to each cell suspension, which was then sonicated for […] in a bath sonicator (model G1 12SPIG, Laboratory Supplies Company, Inc., Hicksville, N.Y.). The lysate was assayed for nitroxide content by EPR spectroscopy. […] EPR Spectroscopy. EPR spectra were recorded on an X-band spectrometer (model E-109, Varian Inc., Palo Alto, Calif.) at the following settings: microwave power, 20 mW; microwave frequency, 9.55 GHz; field set, 3335 G; modulation frequency, 1 kHz; modulation amplitude, 0.5 G; field sweep, 80 G at 26.7 G min^-1 Where the amplitude of only the center spectral line was required, the sweep width was 8 […] software (Scientific Software Solutions, Northville, Mich.) was used for spectrometer control and data acquisition. Nitroxide signal was measured as the peak-to-trough amplitude of the center line of the three-line spectrum.

[4] = pH 6
[5] = mouse, in vivo, iv

Molecule: C[C@]12CCC(=O)C=C1CC[C@@H]1[C@@H]2[C@@H](O)C[C@@]2(C)[C@H]1CC[C@]2(O)C(=O)CO [hydrocortisone]
known logP [1]: 1.53

Molecule: CC(=O)OCOC(=O)C1CC(C)(C)N([O])C1(C)C (centres unmarked) [Ester 2, 3-Acetoxymethoxycarbonyl-2,2,5,5-tetramethyl-1-pyrrolidinyloxyl]
percentage of original dose crossed the blood brain barrier and entrapped in the brain as nitroxide [1] ([2]; 10-min point): about 42%
percentage of original dose crossed the blood brain barrier and entrapped in the brain as nitroxide [1] ([2]; 20-min point): about 42%

chromatographic logP [3]: 1.33
Molecule: CCC(=O)OCOC(=O)C1CC(C)(C)N(O)C1(C)C (centres unmarked) [Ester 3]

chromatographic logP [3]: 2.67
Molecule: CCCCC(=O)OCOC(=O)C1CC(C)(C)N(O)C1(C)C (centres unmarked) [Ester 4]

chromatographic logP [3]: 3.54
Molecule: CCCCCCC(=O)OCOC(=O)C1CC(C)(C)N(O)C1(C)C (centres unmarked) [Ester 7]

intracellular loading of nitroxide [1] (Jurkat lymphocytes): no additional improvement in loading
Molecule: 3-heptanoylmethoxycarbonyl-2,2,5,5-tetramethyl-1-pyrrolidinyloxyl [Ester 7]

logP [4]: 2.67
percentage of original dose crossed the blood brain barrier and entrapped in the brain as nitroxide [1] [5]: about 65%
Molecule: CCCCC(=O)OCOC(=O)C1CC(C)(C)N([O])C1(C)C (centres unmarked) [Ester 4, 3-pentanoylmethoxycarbonyl-2,2,5,5-tetramethyl-1-pyrrolidinyloxyl]

Molecule: CCC(=O)OCOC(=O)C1CC(C)(C)N([O])C1(C)C (centres unmarked) [Ester 3, 3-propanoylmethyloxycarbonyl-2,2,5,5-tetramethyl-1-pyrrolidinyloxyl]
intracellular loading of nitroxide [1] (Jurkat lymphocytes): negligible effect on intracellular loading

logP [4]: 2.60
Molecule: CC(C)(C)C(=O)OCOC(=O)C1CC(C)(C)N([O])C1(C)C (centres unmarked) [Ester 6]
